The structures appear in SMILES notation.

One assay has as its target DGKα (Homo sapiens (Human), UniProt P23743). In words: Biochemical DGK IC50 assay (ADP-Glo, lipid micelle substrate), DGKα. Also: full length DGKα 7.5 nM. As to conditions: full length DGKα […], ATP 140 μM, DAG 80 μM. The procedure:
(§1) Enzymatic reactions of DGKζ, DGKα and DGKδ were performed using ADP-Glo assay with lipid micelle substrate. […] Full length DGKα (D21-10BG, SignalChem) and full length DGKδ (D23-10G, SignalChem) were purchased. Lipid micelle was prepared by dissolving DAG (Sigma, 317505-10MG) and PS (Sigma, P7769-100MG) with chloroform which was furtherly removed by rotary evaporation. The resulted product was resuspended in buffer containing 25 mM HEPES pH 7.0, 0.5 mM EDTA and 160 mM Octyl P-D glucopyranoside by vigorous mixing and ultrasonic (IID, Scientz).
(§2) The inhibition activities testing for the compound disclosed herein were carried out at room temperature in assay buffer containing 50 mM HEPES, 10 mM MgCl2, 0.01% BSA, 0.1 mM Na3VO4, 0.005% Tween-20 and 0.01 mM CaCl2. Compounds in DMSO were dispensed into wells of a black 384 well plate (Corning 4514) using D300e digital dispenser (Tecan). […] 3 μL 2× enzyme solution was added to wells. […] After 1 hour reaction, 5 μL ADP-Glo reagent (Promga V9101) was added and incubated for 40 minutes. 10 μL Kinase Detection reagent was added and incubated for 30 minutes. Luminescence was measured on a microplate reader (PHERAstar FSX, BMG labtech). The IC50s are calculated based on inhibition of enzyme activity in the presence of increasing concentrations of compounds.
Background: ADP-Glo first removes unused ATP, then detects ADP through luciferase.

Another assay addresses DGKζ (Homo sapiens (Human), UniProt Q13574). As to the kind of experiment: Biochemical DGK IC50 assay (ADP-Glo, lipid micelle substrate), DGKζ. The following applies: full length DGKζ 0.5 nM, ATP 140 μM, DAG 80 μM. On the procedure: as §1, §2
Human His-TEV-DGK-zeta-pFastBac1 and human baculovirus samples was generated using the Bac-to-Bac baculovirus expression system (Invitrogen) according to the manufacturer's protocol. The DNA used for expression of DGK-zeta, have SEQ ID Nos: 1. Baculovirus amplification was achieved using infected SF9 cells at 1:2000 virus/cells ratios, and grown for 96 hours at 27° C. post-transfected.
The expression scaled up for each protein was carried out in the […] from CORNING. 4 L of 3×10^6 cells/mL Sf9 cells (Expression System, Invitrogen) grown in SF900™ II SFM insect medium (Expression System) was infected with virus stock at 1:200 virus/cells ratio, and grown for 48 hours at 27° C. post-transfection. The infected cell culture was harvested by centrifugation at 6000 rpm for 15 min 4° C. in a SORVALL LYNX6000 centrifuge. The cell pellets were stored at −80° C.
Full length human DGKζ produced as described above, was purified from Sf9 baculovirus-infected insect cell paste. The cells were lysed using sonication method, and the lysates were clarified by centrifugation.

Sequence of DGKζ (Q13574 other isoform, or with tags, fused parts or gaps): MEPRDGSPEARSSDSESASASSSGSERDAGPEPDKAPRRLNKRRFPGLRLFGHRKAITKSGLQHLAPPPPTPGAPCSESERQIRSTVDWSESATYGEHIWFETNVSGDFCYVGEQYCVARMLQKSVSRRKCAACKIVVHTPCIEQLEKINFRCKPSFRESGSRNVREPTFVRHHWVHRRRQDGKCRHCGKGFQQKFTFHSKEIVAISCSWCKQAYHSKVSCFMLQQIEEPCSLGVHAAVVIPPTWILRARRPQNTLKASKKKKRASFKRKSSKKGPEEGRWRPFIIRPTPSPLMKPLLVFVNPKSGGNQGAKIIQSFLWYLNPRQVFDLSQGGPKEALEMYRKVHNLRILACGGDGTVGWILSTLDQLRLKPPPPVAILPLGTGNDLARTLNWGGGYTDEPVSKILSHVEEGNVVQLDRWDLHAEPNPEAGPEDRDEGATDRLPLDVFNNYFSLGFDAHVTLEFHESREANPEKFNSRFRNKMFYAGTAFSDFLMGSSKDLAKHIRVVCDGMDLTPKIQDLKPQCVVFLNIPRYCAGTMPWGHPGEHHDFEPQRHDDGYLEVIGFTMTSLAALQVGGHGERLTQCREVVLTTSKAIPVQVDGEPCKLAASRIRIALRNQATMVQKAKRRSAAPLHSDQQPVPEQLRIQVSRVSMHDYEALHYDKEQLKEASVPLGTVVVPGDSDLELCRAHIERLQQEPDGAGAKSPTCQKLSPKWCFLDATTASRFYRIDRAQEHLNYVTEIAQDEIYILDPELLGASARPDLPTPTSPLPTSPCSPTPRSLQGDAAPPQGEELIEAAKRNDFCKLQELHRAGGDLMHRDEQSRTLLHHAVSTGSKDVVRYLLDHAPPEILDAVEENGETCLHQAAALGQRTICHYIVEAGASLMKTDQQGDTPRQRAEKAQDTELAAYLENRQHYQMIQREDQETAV
Sequence of DGKα (P23743 whole entry): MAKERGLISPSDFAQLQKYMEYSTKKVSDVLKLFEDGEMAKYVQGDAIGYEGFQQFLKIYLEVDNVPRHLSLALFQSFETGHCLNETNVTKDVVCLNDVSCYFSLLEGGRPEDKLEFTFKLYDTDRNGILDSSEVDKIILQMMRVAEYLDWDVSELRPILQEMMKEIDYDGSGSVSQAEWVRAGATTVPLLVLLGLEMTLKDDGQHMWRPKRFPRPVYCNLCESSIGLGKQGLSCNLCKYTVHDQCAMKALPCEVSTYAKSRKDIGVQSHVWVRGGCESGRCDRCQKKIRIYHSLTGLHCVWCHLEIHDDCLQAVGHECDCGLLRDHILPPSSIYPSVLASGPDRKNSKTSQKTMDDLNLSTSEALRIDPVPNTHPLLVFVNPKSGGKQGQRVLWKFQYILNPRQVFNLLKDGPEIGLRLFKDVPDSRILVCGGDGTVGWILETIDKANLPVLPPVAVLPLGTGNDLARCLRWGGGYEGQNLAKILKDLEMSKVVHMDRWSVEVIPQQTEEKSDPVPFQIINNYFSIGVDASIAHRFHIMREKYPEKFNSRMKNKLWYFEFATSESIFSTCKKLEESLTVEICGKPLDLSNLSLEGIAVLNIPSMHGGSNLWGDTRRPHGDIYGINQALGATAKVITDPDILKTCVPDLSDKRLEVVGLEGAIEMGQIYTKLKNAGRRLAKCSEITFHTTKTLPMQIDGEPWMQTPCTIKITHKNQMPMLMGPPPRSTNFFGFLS

Consider `CC[C@H]1CN(C(C)c2cc(F)c3ncsc3c2)[C@H](CC)CN1c1cc(=O)n(C)c2cn(CC#N)nc12` (single isomer, unassigned) [Compound A101a], for which the IC50 (in general, the midpoint of a concentration-inhibition curve) stood at 2610 nM at DGKα and 19 nM at DGKζ.
The corresponding values for `CC[C@H]1CN(C(C)c2cc(F)c3ncsc3c2)[C@H](CC)CN1c1cc(=O)n(C)c2cn(CC#N)nc12` (single isomer, unassigned) [Compound A101b] are 17700 nM and 1240 nM.
In the same order, the values of `CC[C@H]1CN(C(C)c2cc3scnc3cc2F)[C@H](CC)CN1c1cc(=O)n(C)c2cn(CC#N)nc12` (single isomer, unassigned) [Compound A103a] are 92 nM and 14 nM.
As to `CC[C@H]1CN(C(C)c2cc3scnc3cc2F)[C@H](CC)CN1c1cc(=O)n(C)c2cn(CC#N)nc12` (single isomer, unassigned) [Compound A103b], the results for the IC50 on DGKα and on DGKζ were 1350 nM and 629 nM, respectively.
In the same order, the values of `CC[C@@H]1CN(c2cc(=O)n(C)c3cn(CC#N)nc23)[C@@H](C)CN1C(C)c1ccc2nc(C)sc2c1F` (single isomer, unassigned) [Compound A104a] are 3150 nM and 6.5 nM.
Turning to `CC[C@@H]1CN(c2cc(=O)n(C)c3cn(CC#N)nc23)[C@@H](C)CN1C(C)c1ccc2nc(C)sc2c1F` (single isomer, unassigned) [Compound A104b], the values for the IC50 at DGKα and at DGKζ were 18400 nM and 220 nM, respectively.
The corresponding values for `CC[C@H]1CN(C(C)c2ccc3nsnc3c2)[C@H](CC)CN1c1cc(=O)n(C)c2cn(CC#N)nc12` (single isomer, unassigned) [Compound A106a] are 65 nM and 9 nM.
The corresponding values for `CC[C@H]1CN(C(C)c2ccc3nsnc3c2)[C@H](CC)CN1c1cc(=O)n(C)c2cn(CC#N)nc12` (single isomer, unassigned) [Compound A106b] are 932 nM and 600 nM.
The corresponding values for `CC[C@H]1CN(C(C)c2ccc3scnc3c2F)[C@H](CC)CN1c1cc(=O)n(C)c2cn(CC#N)nc12` (single isomer, unassigned) [Compound A110a] are 469 nM and 31 nM.
In the case of `CC[C@H]1CN(C(C)c2ccc3scnc3c2F)[C@H](CC)CN1c1cc(=O)n(C)c2cn(CC#N)nc12` (single isomer, unassigned) [Compound A110b], the IC50 against DGKα turned out to be 10500 nM; against DGKζ, 1720 nM.
As for `CC#CCn1cc2c(n1)c(N1C[C@@H](CC)N(C(C)c3nc4ccccc4nc3C)C[C@@H]1C)cc(=O)n2C` (single isomer, unassigned) [Compound A111a], the IC50 was 2540 nM against DGKα and above 10000 nM on DGKζ.
The corresponding values for `CC#CCn1cc2c(n1)c(N1C[C@@H](CC)N(C(C)c3nc4ccccc4nc3C)C[C@@H]1C)cc(=O)n2C` (single isomer, unassigned) [Compound A111b] are 1250 nM and 55 nM.
In the same order, the values of `CC#CCn1cc2c(n1)c(N1C[C@@H](CC)N(C(C)c3ccc4ncsc4c3)C[C@@H]1C)cc(=O)n2C` (single isomer, unassigned) [Compound A112a] are 65 nM and 78 nM.
In the same order, the values of `CC#CCn1cc2c(n1)c(N1C[C@@H](CC)N(C(C)c3ccc4ncsc4c3)C[C@@H]1C)cc(=O)n2C` (single isomer, unassigned) [Compound A112b] are 497 nM and above 10000 nM.
`CC#CCn1cc2c(n1)c(N1C[C@@H](CC)N(C(C)c3ccc4nc(C)sc4c3)C[C@@H]1CC)cc(=O)n2C` (single isomer, unassigned) [Compound A114a]: the IC50 against DGKα came out at 32 nM; on DGKζ, 83 nM.
The corresponding values for `CC#CCn1cc2c(n1)c(N1C[C@@H](CC)N(C(C)c3ccc4nc(C)sc4c3)C[C@@H]1CC)cc(=O)n2C` (single isomer, unassigned) [Compound A114b] are 391 nM and 3200 nM.
In the same order, the values of `CC#CCn1cc2c(n1)c(N1C[C@@H](CC)N(C(C)c3ccc4nc(C)sc4c3)C[C@@H]1C)cc(=O)n2C` (single isomer, unassigned) [Compound A115a] are 269 nM and 431 nM.
On to `CC#CCn1cc2c(n1)c(N1C[C@@H](CC)N(C(C)c3ccc4nc(C)sc4c3)C[C@@H]1C)cc(=O)n2C` (single isomer, unassigned) [Compound A115b], for which the figures for the IC50 against DGKα and at DGKζ were 1250 nM and 6490 nM, respectively.
In the same order, the values of `CC#CCn1cc2c(n1)c(N1C[C@@H](CC)N(C(C)c3ccc4nc(C)sc4c3F)C[C@@H]1C)cc(=O)n2C` (single isomer, unassigned) [Compound A116a] are 2330 nM and 181 nM.
`CC#CCn1cc2c(n1)c(N1C[C@@H](CC)N(C(C)c3ccc4nc(C)sc4c3F)C[C@@H]1C)cc(=O)n2C` (single isomer, unassigned) [Compound A116b]: the IC50 against DGKα is 21000 nM; at DGKζ, above 10000 nM.
As for `CC[C@H]1CN(C(C)c2ccc3ncsc3n2)[C@H](CC)CN1c1nc(=O)n(C)c2cn(CC#N)nc12` (single isomer, unassigned) [Compound A126a], the IC50 against DGKα was determined as 1370 nM; against DGKζ it was 1320 nM.
As to `CC[C@H]1CN(C(C)c2ccc3ncsc3n2)[C@H](CC)CN1c1nc(=O)n(C)c2cn(CC#N)nc12` (single isomer, unassigned) [Compound A126b], the figures for the IC50 against DGKα and against DGKζ were 93 nM and 51 nM, respectively.
In the case of `CC[C@H]1CN(C(C)c2ccc(C3CC3)nc2)[C@H](CC)CN1c1nc(=O)n(C)c2cn(CC#N)nc12` (single isomer, unassigned) [Compound A127a], the IC50 on DGKα worked out at 357 nM; at DGKζ, 71 nM.
The corresponding values for `CC[C@H]1CN(C(C)c2ccc(C3CC3)nc2)[C@H](CC)CN1c1nc(=O)n(C)c2cn(CC#N)nc12` (single isomer, unassigned) [Compound A127b] are 3360 nM and 3280 nM.
In the same order, the values of `CC[C@H]1CN(C(C)c2cc3sc(C)nc3cc2F)[C@H](CC)CN1c1nc(=O)n(C)c2cn(CC#N)nc12` (single isomer, unassigned) [Compound A128a] are 375 nM and 60 nM.
The corresponding values for `CC[C@H]1CN(C(C)c2cc3sc(C)nc3cc2F)[C@H](CC)CN1c1nc(=O)n(C)c2cn(CC#N)nc12` (single isomer, unassigned) [Compound A128b] are 4480 nM and 694 nM.
`CC[C@H]1CN(C(C)c2ccc3nc(C)sc3n2)[C@H](CC)CN1c1nc(=O)n(C)c2cn(CC#N)nc12` (single isomer, unassigned) [Compound A129a]: the results for the IC50 against DGKα and against DGKζ were 2100 nM and 626 nM, respectively.
In the same order, the values of `CC[C@H]1CN(C(C)c2ccc3nc(C)sc3n2)[C@H](CC)CN1c1nc(=O)n(C)c2cn(CC#N)nc12` (single isomer, unassigned) [Compound A129b] are 192 nM and 45 nM.
Take `CC[C@H]1CN(C(C)c2ccc3nc(C)sc3n2)[C@H](CC)CN1c1cc(=O)n(C)c2cn(CC#N)nc12` (single isomer, unassigned) [Compound A133a]: the values for the half-inhibitory concentration (IC50) on DGKα and on DGKζ were 3280 nM and 1520 nM, respectively.

These data come from patent US20250346597A1, “CONDENSED HETEROCYCLIC COMPOUNDS AS INHIBITOR OF DIACYLGLYCEROL KINASES” (BEONE MEDICINES I GMBH, priority 2023, published 2025).
